These are literature values, as cited in patent US20230233583A1, “USE OF PHYTOCANNABINOIDS FOR TREATING MULTIPLE MYELOMA” (priority 2020, published 2023).

For the data set, the system named is MM cells. The conditions noted are these: reported in literature (ref. 3); by itself or in synergy with bortezomib; cited from earlier work.

Consider `C=C(C)[C@@H]1CCC(C)=C[C@H]1c1c(O)cc(CCCCC)cc1O` [CBD, cannabidiol], for which the “growth of MM cells, in words” value is “strongly inhibited growth”.
